Results on two molecules are retold here after patent publication US6242444A, “Compounds and pharmaceutical compositions containing the same” (The Jordanian Pharmaceutical Manufacturing and Medical …, priority 1999, dated 2001).

Common to all, as to type: in vivo, rat
The test system of data set [1] is male rats. Briefly: Penile erection study in male rats after oral administration (responding rats, ED50, erection episodes, penile erection index). The following applies: for responding rats, # / responding rats, %: 10 rats tested, 2 h observation; for copulation mounting behaviour: 0.0781-0.625 mg/kg. On the procedure:
The purpose of this study was to compare the biological activity of compound 7a with that of sildenafil. In particular, the respective ED50 -value (ED=effective dose), erection episodes and penile erection indices of said compounds in the treatment of male rats were determined. The penile erection index is an established means of determining the erection promoting properties of a substance (see e.g. Ang, H. H., Sim, M. K., Pharm. Sci., 3, 117-119 (1997) and references cited therein).
In these experiments, the compounds 7a and sildenafil were administered to male rats orally. The doses used for both drugs were 0.0781, 0.1562, 0.3125 and 0.625 mg/kg body weight. Sildenafil was dissolved in distilled water, whereas 7a was dissolved in 1% HCl solution (aq). Control animals were administered with the vehicles only, i.e. distilled water or the 1% HCl solution. During the experiments, the rats were placed in glass cages for observation and had access to food and water. During 2 h after administration of the investigated compounds, the penile erection of the rats was monitored.

The subject of data set [2] is rats. Put plainly: Preliminary toxicity studies in rats. On the procedure:
(§1) Moreover, according to preliminary toxicity studies in rats, the compound 7a is tolerated up to a dose of about […] body weight without any detrimental effects. […] Thus, high doses of 7a provide a particularly efficient means for treatment of erectile dysfunction.

Data set [3] in a line: Preliminary toxicity studies in rats. The following applies: rat, in vivo, read-out: tolerated dose without any detrimental effects. The method, then:
as §1

Consider `CCCc1nn(C)c2c(=O)[nH]c(-c3cc(S(=O)(=O)N4CCN(C)CC4)cc4c3OCC4)nc12` [Compound 7a, 5-[2,3-dihydro-5-(4-methylpiperazin-1-ylsulfonyl)-7-benzofuryl]-1-methyl-3-propyl-6,7-dihydro-1H-pyrazolo[4,3-d]pyrimidin-7-one], for which the “responding rats, #” value in data set [1] (dose 0.0781 mg/kg oral) is on record as 3 #; in data set [1] (dose 0.1562 mg/kg oral), 4 #; in data set [1] (dose 0.3125 mg/kg oral), 4 #; in data set [1] (dose 0.6250 mg/kg oral), 8 #. The “responding rats, %” value was determined as 30% in data set [1] (dose 0.0781 mg/kg oral), 40% in data set [1] (dose 0.1562 mg/kg oral), 40% in data set [1] (dose 0.3125 mg/kg oral) and 80% in data set [1] (dose 0.6250 mg/kg oral). Further, the copulation mounting behaviour result in data set [1] (male rats, oral) is listed as “no copulation mounting behaviour was observed”. Also, the “number of erection episodes and penile erection indices (in words)” value in data set [1] (male rats, oral, 7a vs sildenafil, FIGS. 1 and 2) is on record as “superior to sildenafil, especially at higher doses”. Moreover, the “ED50 of 7a compared with sildenafil (in words)” value in data set [1] (male rats, oral, 7a vs sildenafil, 95% confidence interval) is “lower than that of sildenafil”. Besides, in data set [2], the “toxicity and side-effects (in words)” value was “completely non-toxic and free from undesirable side-effects”. In addition, in data set [3], the NOAEL is ~0.35 mg/kg.
With `CCCc1nn(C)c2c(=O)[nH]c(-c3cc(S(=O)(=O)N4CCN(C)CC4)ccc3OCC)nc12` [Sildenafil, reference compound], the “responding rats, #” value in data set [1] (dose 0.0781 mg/kg oral) is on record as 3 #; in data set [1] (dose 0.1562 mg/kg oral), 3 #; in data set [1] (dose 0.3125 mg/kg oral), 5 #; in data set [1] (dose 0.6250 mg/kg oral), 7 #. The “responding rats, %” value came to 30% in data set [1] (dose 0.0781 mg/kg oral), 30% in data set [1] (dose 0.1562 mg/kg oral), 50% in data set [1] (dose 0.3125 mg/kg oral) and 70% in data set [1] (dose 0.6250 mg/kg oral). The copulation mounting behaviour entry in data set [1] (male rats, oral) is “no copulation mounting behaviour was observed”.
